Assay results as given in patent publication US12529101B2, “Methods and reagents for characterizing genomic editing, clonal expansion, and associated applications” (TwinStrand Biosciences, Inc., priority 2018, dated 2026).

Legend:
Tg.rasH2 mice = assay: Duplex Sequencing of mutation induction and mutation spectrum in lung, spleen and blood; format: in vivo, mouse
Excerpt: (§1) In this example, the impact of urethane is examined in different mouse tissue types (lung, spleen, blood) in an FDA-accepted cancer-predisposed mouse model: Tg.rasH2 (Saitoh et al. Oncogene 1990. PMID 2202951). This mouse contains ˜3 tandem copies of human HRAS with an activating enhancer mutation to boost expression on one hemizygous allele. These mice are predisposed to splenic angiosarcomas and lung adenocarcinomas, and are routinely used for 6 month carcinogenicity studies to substitute for 2 year wild-type animal studies. Tumors found in the mice have usually acquired activating mutations in one copy of the human HRAS protooncogene. Thus, the human HRAS transgene serves a model target cancer driver gene in these animals. Sequence analysis and mutation detection was performed for 4 native mouse genes (Rho, Hp, Ctnnb1, Polr1c), along with the native mouse Hras, Kras, Nras and human HRAS transgene.
(§2) In this example, Tg.rasH2 mice (n=5/group) were dosed with vehicle or a model mutation-inducing agent (e.g., a carcinogenic dose of urethane) (day 1,3,5) and sacrificed on day 29 for mutation detection by Duplex Sequencing in target tissues (lung, spleen) and whole blood. Target endogenous genes (Rho, Hp, Ctnnb1, Polr1c) and the native mouse Hras and human HRAS (trans)genes were also sequenced.

human HRAS transgene = assay: Duplex Sequencing detection of clonally expanded cancer driver mutations after urethane dosing; format: in vivo, mouse
Excerpt: as §1, §2

- mutation induction in peripheral blood (Tg.rasH2 mice; compared with spleen): closely mirrored that seen in the spleen
- treated spleen samples with mutations in human HRAS codon 61 (human HRAS transgene; Tg.rasH2 mice, day 29, spleen, one at the same position, one on an adjoining base pair): two
- urethane treated lung samples with the human HRAS codon 61 T>A mutation (human HRAS transgene; Tg.rasH2 mice, n=5/group, day 29, lung): 4/5
- urethane-treated splenic samples with T>A transversion at the human oncogenic HRAS codon 61 hotspot (human HRAS transgene; Tg.rasH2 mice, n=5/group, spleen): 1/5
- variant allele frequencies of the codon 61 mutation in exon 3 of human HRAS (human HRAS transgene; urethane treated lung samples, Tg.rasH2 mice, day 29, T→A transversions in the context CTG): 0.1%-1.8
- cells encompassed by the highest allele fraction clone (human HRAS transgene; within the 29 days of the study): more than 90,000 cells
SMILES: CCOC(N)=O [urethane]
- triplet mutation spectrum (Tg.rasH2 mice; distinguishable from the vehicle control): strong propensity for T→A and T→C mutations within the context of “NTG”
- tissue-specific variations in the extent of mutation induction (Tg.rasH2 mice; lung, spleen, blood): lung being observed to be more mutation prone than spleen and blood
- doubling time of the selected clone cells (human HRAS transgene; by calculation, 29 days, assuming no cell death): ~1.8 days
